Measured values reported in patent US11596639B2, “Substituted indole Mcl-1 inhibitors” (Vanderbilt University, priority 2016, dated 2023).
Where two headings read alike, the source gives them in different places.

Key:
Mcl-1 = Mcl-1 (Homo sapiens (Human), UniProt Q07820); assay: Fluorescence polarization anisotropy (FPA) competition assay, FITC-Bak or FITC-Bim BH3 peptide; type: binding; details: read-out: Ki for Inhibition of Mcl-1 by FPA assay
[1] = test system: H929 human cancer cell lines; assay: Cellular viability / proliferation (Cell TiterGlo, 72 h); type: cell-based
Method in brief: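 1,000 cells/well, 10% FBS medium; compound added at 24 h, 2-fold dilutions from 50 μM top, DMSO <1% final. 72 h exposure, CellTiterGlo 30 min RT dark, luminescence read. IC50 by 4-parameter fit.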

[2] = Homo sapiens, NCI-H929, 72 h, read-out: GI50 on cellular proliferation of H929 human cancer cell lines, H929 cells, 72 h, Cell TiterGlo, 10% FBS
[3] = H929 cells, 72 h, Cell TiterGlo, 10% FBS, read-out: GI50 on cellular proliferation of H929 human cancer cell lines

Chain of Mcl-1 (Q07820 172-327): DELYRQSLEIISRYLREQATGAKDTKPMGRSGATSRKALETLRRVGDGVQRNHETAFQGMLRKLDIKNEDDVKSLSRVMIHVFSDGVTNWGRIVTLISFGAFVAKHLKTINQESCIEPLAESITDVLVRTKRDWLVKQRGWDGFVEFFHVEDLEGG

Row | SMILES | Ki (Mcl-1) [nM] | GI50 [1, 2] [nM] | GI50 [1, 3] [nM]
1 | COc1ccc(N2C[C@@H](C)n3c(c(CCCOc4cc(C)c(Cl)c(C)c4)c4ccc(Cl)c(-c5c(C)nn(C)c5C)c43)C2=O)c2c1cc(C(=O)O)n2C [Example 192, (R)-7-(7-Chloro-10-(3-(4-chloro-3,5-dimethylphenoxy)propyl)-4-methyl-1-oxo-6-(1,3,5-trimethyl-1H-pyrazol-4-yl)-3,4-dihydropyrazino[1,2-a]indol-2(1H)-yl)-4-methoxy-1-methyl-1H-indole-2-carboxylic acid] | < 1 | < 200 | –
2 | Cc1cc(OCCCc2c3n(c4c(-c5c(C)nn(C)c5C)c(Cl)ccc24)[C@H](C)CN(c2cn(C)c4ccc(-c5nnn[nH]5)cc24)C3=O)cc(C)c1Cl [Example 235, (R)-7-Chloro-10-(3-(4-chloro-3,5-dimethylphenoxy)propyl)-4-methyl-2-(1-methyl-5-(1H-tetrazol-5-yl)-1H-indol-3-yl)-&(1,3,5-trimethyl-1H-pyrazol-4-yl)-3,4-dihydropyrazino[1,2-a]indol-1(2H)-one] | < 1 | – | 240
3 | Cc1cc(OCCCc2c3n(c4c(-c5c(C)ncnc5C)c(Cl)ccc24)CCCN(c2cccc4cc(C(=O)O)ccc24)C3=O)cc(C)c1Cl [Example 213, 5-[8-Chloro-11-[3-(4-chloro-3,5-dimethyl-phenoxy)propyl]-7-(4,6-dimethylpyrimidin-5-yl)-1-oxo-4,5-dihydro-3H-[1,4]diazepino[1,2-a]indol-2-yl]naphthalene-2-carboxylic acid] | < 1 | < 200 | –
4 | Cc1cc(OCCCc2c3n(c4c(-c5c(C)nn(C)c5C)c(Cl)ccc24)[C@H](C)CN(c2cc(CN4CCCC4)cc4cc(C(=O)O)n(C)c24)C3=O)cc(C)c1Cl [Example 401, (R)-7-(7-chloro-10-(3-(4-chloro-3,5-dimethylphenoxy)propyl)-4-methyl-1-oxo-6-(1,3,5-trimethyl-1H-pyrazol-4-yl)-3,4-dihydropyrazino[1,2-a]indol-2(1H)-yl)-1-methyl-5-(pyrrolidin-1-ylmethyl)-1H-indole-2-carboxylic acid] | < 1 | 280 | –
5 | Cc1cc(OCCCc2c3n(c4c(-c5c(C)nc(CN6CCCC6)nc5C)c(Cl)ccc24)[C@H](C)CN(c2cn(C)c4ccc(C(=O)O)cc24)C3=O)cc(C)c1Cl [Example 390, (R)-3-(7-Chloro-10-(3-(4-chloro-3,5-dimethylphenoxy)propyl)-6-(4,6-dimethyl-2-(pyrrolidin-1-ylmethyl)pyrimidin-5-yl)-4-methyl-1-oxo-3,4-dihydropyrazino[1,2-a]indol-2(1H)-yl)-1-methyl-1H-indole-5-carboxylic acid] | 2.3 | 340 | –
6 | Cc1cc(OCCCc2c3n(c4c(-c5c(C)nn(C)c5C)c(Cl)ccc24)[C@H](C)CN(c2cccc4ccc(C(=O)O)cc24)C3=O)cc(C)c1Cl [Example 368, (P, R)-8-(7-Chloro-10-(3-(4-chloro-3,5-dimethylphenoxy)propyl)-4-methyl-1-oxo-6-(1,3,5-trimethyl-1H-pyrazol-4-yl)-3,4-dihydropyrazino[1,2-a]indol-2(1H)-yl)-2-naphthoic acid] | 1.4 | – | 620
7 | Cc1cc(OCCCc2c3n(c4c(-c5c(C)nn(C)c5C)c(Cl)ccc24)[C@H](C)CN(c2ccc(OCc4ccccc4)c4c2cc(C(=O)O)n4C)C3=O)cc(C)c1Cl [Example 327, (P, R)-7-(Benzyloxy)-4-(7-chloro-10-(3-(4-chloro-3,5-dimethylphenoxy)propyl)-4-methyl-1-oxo-6-(1,3,5-trimethyl-1H-pyrazol-4-yl)-3,4-dihydropyrazino[1,2-a]indol-2(1H)-yl)-1-methyl-1H-indole-2-carboxylic acid] | 1.6 | – | 3600
8 | Cc1cc(OCCCc2c3n(c4c(-c5c(C)ncnc5C)c(Cl)ccc24)CCCN(c2ccc(C(=O)O)c4ncccc24)C3=O)cc(C)c1Cl [Example 147, 5-[8-Chloro-11-[3-(4-chloro-3,5-dimethyl-phenoxy)propyl]-7-(4,6-dimethylpyrimidin-5-yl)-1-oxo-4,5-dihydro-3H-[1,4]diazepino[1,2-a]indol-2-yl]quinoline-8-carboxylic acid] | 1.8 | 4300 | –
